Reference: ChEMBL document CHEMBL5506049, “Discovery of Novel Small-Molecule-Based Potential PD-L1/EGFR Dual Inhibitors with High Druggability for Glioblastoma Immunotherapy” (J Med Chem, 2024)
Calls of active or inactive are those of the source. The calls are words filed in the database; no cut-off is given here.

Assays:
cells [1] = conditions: GL261, 72 h
Description: Antiproliferative activity against human GL261 cells incubated for 72 hrs by MTT assay

[2] = Toxicity in C57BL/6 mouse xenografted with […] GL261 cells assessed as cell necrosis in liver at 100 mg/kg, IG treated for 21 days by hematoxylin-eosin staining based microscopy assay; format: organism-based; conditions: in vivo, po, 504 h, time 21 day
[3] = AUC (0 to infinity) in Sprague-Dawley rat at 20 mg/kg, po measured upto 72 hrs by (LC-MS)/MS analysis; format: ADME, organism-based; conditions: in vivo
[4] = In vivo antitumor activity against […] GL261 cells xenografted in C57BL/6 mouse assessed as tumor growth inhibition (tumor volume decrease) at 100 mg/kg, IG treated for 21 days relative to control; format: functional; conditions: GL261, po, 504 h, time 21 day, read-out: TGI
U-87 MG [5] = test: Induction of cell cycle arrest in human U-87 MG cells assessed as accumulation of cells at G0/G1 phase at 2 uM incubated for 48 hrs by flow cytometry (reference value: 60.51%); format: functional, U-87MG ATCC
[6] = Toxicity in C57BL/6 mouse xenografted with […] GL261 cells assessed as body weight loss at 50 to 100 mg/kg, IG treated for 21 days; format: organism-based; conditions: in vivo, po, 504 h, dose 50-100 mg/kg, time 21 day
[7] = Toxicity in C57BL/6 mouse xenografted with […] GL261 cells assessed as cell necrosis in kidney at 100 mg/kg, IG treated for 21 days by hematoxylin-eosin staining based microscopy assay; format: organism-based; conditions: in vivo, po, 504 h, time 21 day
[8] = In vivo antitumor activity against […] GL261 cells xenografted in C57BL/6 mouse assessed as decrease in PD-L1 expression in tumor tissue at 100 mg/kg, IG treated for 21 days relative to control; format: functional; parameters: scale not given: the % may be the effect or the level left; conditions: time 21 day
[9] = MRT (0 to t) in Sprague-Dawley rat at 20 mg/kg, po measured upto 72 hrs by (LC-MS)/MS analysis; format: ADME, organism-based; conditions: in vivo
[10] = Clearance in Sprague-Dawley rat at 20 mg/kg, po measured upto 72 hrs by (LC-MS)/MS analysis; format: ADME, organism-based; conditions: in vivo
GL261 = test: In vivo antitumor activity against […] GL261 cells xenografted in intragastrically dosed C57BL/6 mouse assessed as decrease in tumor size treated for 21 days relative to control; format: functional, organism-based; conditions: route ig, time 21.0 day
[11] = MRT (0 to infinity) in Sprague-Dawley rat at 20 mg/kg, po measured upto 72 hrs by (LC-MS)/MS analysis; format: ADME, organism-based; conditions: in vivo
[12] = AUC (0 to t) in Sprague-Dawley rat at 20 mg/kg, po measured upto 72 hrs by (LC-MS)/MS analysis; format: ADME, organism-based; conditions: in vivo
[13] = Toxicity in C57BL/6 mouse xenografted with […] GL261 cells assessed as adverse effect at 50 to 100 mg/kg, IG treated for 21 days; format: organism-based; conditions: in vivo, po, 504 h, dose 50-100 mg/kg, time 21 day
Glioblastoma cell line [14] = test: Antitumor immunity against glioblastoma bearing C57BL/6 mouse model assessed as tumor infiltrating lymphocytes by measuring increase in CD3+CD8+T cells at 100 mg/kg, IG (reference value: 3.44%); format: functional
[15] = Volume of distribution in Sprague-Dawley rat at 4 mg/kg, iv measured upto 72 hrs by (LC-MS)/MS analysis; format: ADME, organism-based; conditions: in vivo
[16] = Cmax in Sprague-Dawley rat at 20 mg/kg, po measured upto 72 hrs by (LC-MS)/MS analysis; format: ADME, organism-based; conditions: in vivo
[17] = AUC (0 to t) in Sprague-Dawley rat at 4 mg/kg, iv measured upto 72 hrs by (LC-MS)/MS analysis; format: ADME, organism-based; conditions: in vivo
[18] = Toxicity in C57BL/6 mouse xenografted with […] GL261 cells assessed as cell necrosis in spleen at 100 mg/kg, IG treated for 21 days by hematoxylin-eosin staining based microscopy assay; format: organism-based; conditions: in vivo, po, 504 h, time 21 day
U-87MG ATCC = test: Effect on total ERK1/2 level in human U-87 MG cells at 0.25 to 2 uM incubated for 48 hrs by Western blot analysis; format: functional, cell-based; conditions: dose 0.25-2 µM
[19] = In vivo antitumor activity against […] GL261 cells xenografted in C57BL/6 mouse assessed as decrease in EGFR phosphorylation in tumor tissue at 100 mg/kg, IG treated for 21 days relative to control; format: functional; parameters: scale not given: the % may be the effect or the level left; conditions: time 21 day
[20] = In vivo antitumor activity against […] GL261 cells xenografted in C57BL/6 mouse assessed as tumor growth inhibition (tumor volume decrease) at 50 mg/kg, IG treated for 21 days relative to control; format: functional; conditions: GL261, po, 504 h, time 21 day, read-out: TGI
Glioblastoma cell line [21] = test: Antitumor immunity against glioblastoma bearing C57BL/6 mouse model assessed as tumor infiltrating lymphocytes by measuring increase in CD3+CD4+T cells at 100 mg/kg, IG (reference value: 0.91%); format: functional
U-87 MG [22] = test: In vitro immunoregulatory effect in IFN-gamma stimulated human U-87 MG cells co-cultured with PHA-P stimulated with human Jurkat T cell assessed as cytotoxicity by measuring cell viability at 0.5 uM incubated for 48 hrs by CCK-8 assay relative to control; format: functional, U-87MG ATCC
[23] = AUC (0 to infinity) in Sprague-Dawley rat at 4 mg/kg, iv measured upto 72 hrs by (LC-MS)/MS analysis; format: ADME, organism-based; conditions: in vivo
[24] = Cmax in Sprague-Dawley rat at 4 mg/kg, iv measured upto 72 hrs by (LC-MS)/MS analysis; format: ADME, organism-based; conditions: in vivo
[25] = Tmax in Sprague-Dawley rat at 20 mg/kg, po measured upto 72 hrs by (LC-MS)/MS analysis; format: ADME, organism-based; conditions: in vivo
U-87 MG [26] = test: Induction of cell cycle arrest in human U-87 MG cells assessed as decrease in accumulation of cells at S phase at 0.5 uM incubated for 48 hrs by flow cytometry (reference value: 30.36%); format: functional, U-87MG ATCC; parameters: scale not given: the % may be the effect or the level left
[27] = Toxicity in C57BL/6 mouse xenografted with […] GL261 cells assessed as cell necrosis in heart at 100 mg/kg, IG treated for 21 days by hematoxylin-eosin staining based microscopy assay; format: organism-based; conditions: in vivo, po, 504 h, time 21 day
[28] = MRT (0 to t) in Sprague-Dawley rat at 4 mg/kg, iv measured upto 72 hrs by (LC-MS)/MS analysis; format: ADME, organism-based; conditions: in vivo
U-87 MG [29] = test: Cytotoxicity activity against human U-87 MG cells assessed as cell viability at 0.5 uM incubated for 48 hrs by CCK-8 assay relative to control; format: functional, U-87MG ATCC; conditions: read-out: Activity
U-87 MG [30] = test: Induction of cell cycle arrest in human U-87 MG cells assessed as accumulation of cells at G0/G1 phase at 1 uM incubated for 48 hrs by flow cytometry (reference value: 60.51%); format: functional, U-87MG ATCC
[31] = MRT (0 to infinity) in Sprague-Dawley rat at 4 mg/kg, iv measured upto 72 hrs by (LC-MS)/MS analysis; format: ADME, organism-based; conditions: in vivo
U-87 MG [32] = test: cells; conditions: Homo sapiens, 72 h
Description: Antiproliferative activity against human U-87 MG cells incubated for 72 hrs by MTT assay

[33] = Volume of distribution in Sprague-Dawley rat at 20 mg/kg, po measured upto 72 hrs by (LC-MS)/MS analysis; format: ADME, organism-based; conditions: in vivo
cells [34] = conditions: Homo sapiens, U87MG Human EGFR vIII, 72 h
Description: Antiproliferative activity against human U87vIII cells expressing EGFRvIII incubated for 72 hrs by MTT assay

[35] = Half life in Sprague-Dawley rat at 20 mg/kg, po measured upto 72 hrs by (LC-MS)/MS analysis; format: ADME, organism-based; conditions: in vivo

Structure (SMILES): COc1cc2ncnc(Nc3cccc(Cl)c3F)c2cc1OCCCCNCc1c(OC)cc(OCc2cccc(-c3ccccc3)c2C)cc1OC
- IC50 (cells [1]): 1190 nM
- Activity [2]: Non-Toxic
- AUC(0-inf) [3]: 3240 ng·h/mL
- inhibition in vivo at 100 mg/kg [4]: 89.4%
- Activity (U-87 MG [5]): 73.98%
- Activity [6]: Non-Toxic
- Activity [7]: Non-Toxic
- Activity [8]: ~30%
- MRT last at 72 h [9]: 17.5 h
- CL/F [10]: 107 mL/min/kg
- Activity (GL261): Dose-Dependent Effect
- MRT inf [11]: 17.2 h
- AUC(0-t) at 72 h [12]: 3150 ng·h/mL
- Activity [13]: Non-Toxic
- Activity (Glioblastoma cell line [14]): 14.6%
- Vd [15]: 13.7 L/kg
- Cmax [16]: 255 ng/mL
- AUC(0-t) at 72 h [17]: 2830 ng·h/mL
- Activity [18]: Non-Toxic
- Activity (U-87MG ATCC): inactive
- Activity [19]: ~50%
- inhibition in vivo at 50 mg/kg [20]: 55.8%
- Activity (Glioblastoma cell line [21]): 3.74%
- Activity (U-87 MG [22]): 73.8%
- AUC(0-inf) [23]: 2910 ng·h/mL
- Cmax [24]: 326 ng/mL
- Tmax [25]: 3.6 h
- Activity (U-87 MG [26]): 28.36%
- Activity [27]: Non-Toxic
- MRT last at 72 h [28]: 12.7 h
- viability at 0.5 µM (U-87 MG [29]): 96.9%
- Activity (U-87 MG [30]): 69.48%
- MRT inf [31]: 12.5 h
- IC50 (U-87 MG [32]): 770 nM
- Vd [33]: 123.5 L/kg
- IC50 (cells [34]): 280 nM
- half-life [35]: 780 min
